From ChEMBL document CHEMBL6078657, “Thiazolidinedione-based structure modification of ergosterol peroxide provides thiazolidinedione-conjugated derivatives as potent agents against breast cancer cells through a PI3K/AKT/mTOR pathway” (Bioorg Med Chem, 2025)
Active and inactive are the calls of the source. The rule behind the calls is not given here.

Assays:
[1] = test system: A549; assay: Antiproliferative activity against human A549 cells assessed as cell viability measured after 48 hrs incubation by MTT assay; assay type: functional, cell-based; settings: A549, 48 h
[2] = test system: HepG2; assay: Antiproliferative activity against human HepG2 cells assessed as cell viability measured after 48 hrs incubation by MTT assay; assay type: functional, cell-based; settings: HepG2, 48 h
[3] = test system: MCF7; assay: Antiproliferative activity against human MCF7 cells assessed as cell viability measured after 48 hrs incubation by MTT assay; assay type: functional, cell-based; settings: MCF7, 48 h
[4] = Antiproliferative activity against human MCF-10A cells assessed as cell viability measured after 48 hrs incubation by MTT assay; assay type: toxicity, cell-based
[5] = Selectivity index, ratio of IC50 for human MCF-10A cells to IC50 for human MCF7 cells; assay type: toxicity; settings: MCF-10A cells and MCF7 cells, read-out: Selectivity Index
[6] = test system: MCF7; assay: Induction of apoptosis in human MCF7 cells assessed as viable cells at 6 uM measured after 48 hrs incubation by Annexin V-FITC/PI double staining assay (reference value: 92.8%); assay type: functional; settings: read-out: Activity
[7] = test system: MCF7; assay: Induction of apoptosis in human MCF7 cells assessed as early apoptotic cells at 6 uM measured after 48 hrs incubation by Annexin V-FITC/PI double staining assay (reference value: 5.73%); assay type: functional
[8] = test system: MCF7; assay: Induction of apoptosis in human MCF7 cells assessed as late apoptotic cells at 6 uM measured after 48 hrs incubation by Annexin V-FITC/PI double staining assay (reference value: 0.68%); assay type: functional
[9] = test system: MCF7; assay: Induction of apoptosis in human MCF7 cells assessed as necrotic cells at 6 uM measured after 48 hrs incubation by Annexin V-FITC/PI double staining assay (reference value: 0.77%); assay type: functional
[10] = test system: MCF7; assay: Induction of apoptosis in human MCF7 cells assessed as decrease in mitochondrial membrane potential by measuring increase in JC-1 monomer (green fluorescence) at 6 uM incubated for 48 hrs by JC-1 staining based flow cytometry analysis (reference value: 2.96%); assay type: functional; set-up: scale not given: the % may be the effect or the level left
[11] = test system: MCF7; assay: Induction of cell cycle arrest in human MCF7 cells assessed as accumulation of cells at G0/G1 phase at 6 uM measured after 48 hrs by PI staining based flow cytometry analysis (reference value: 58.42%); assay type: functional
[12] = test system: MCF7; assay: Induction of cell cycle arrest in human MCF7 cells assessed as accumulation of cells at S phase at 6 uM measured after 48 hrs by PI staining based flow cytometry analysis (reference value: 24.67%); assay type: functional
[13] = test system: MCF7; assay: Induction of cell cycle arrest in human MCF7 cells assessed as accumulation of cells at G2/M phase at 6 uM measured after 48 hrs by PI staining based flow cytometry analysis (reference value: 16.91%); assay type: functional
[14] = test system: 4T1; assay: In vivo antitumor activity against mouse 4T1 cells transfected in BALB/c mouse assessed as tumor growth inhibition at 30 mg/kg, ip daily for 14 consecutive days relative to control; assay type: functional; settings: 4T1, 336 h, time 14 day, read-out: TGI
[15] = test system: 4T1; assay: In vivo antitumor activity against mouse 4T1 cells transfected in BALB/c mouse assessed as tumor growth inhibition at 15 mg/kg, ip daily for 14 consecutive days relative to control; assay type: functional; settings: time 14.0 day
[16] = Toxicity in healthy BALB/c mouse assessed as pathological changes in heart at 20 mg/kg, ip daily for 14 consecutive days by HE staining based assay; assay type: organism-based; settings: in vivo, 336 h, time 14 day

SMILES	IC50 [1]	IC50 [2]	IC50 [3]	IC50 at 48 h [4]	selectivity ratio [5]	also measured
CC(C)[C@@H](C)/C=C/[C@@H](C)[C@H]1CC[C@@H]2[C@]1(C)CC[C@H]1[C@]23C=C[C@]2(C[C@@H](OC(=O)NCCNC(=O)CN4C(=O)S/C(=C\C5CC5)C4=O)CC[C@]12C)OO3	3.32 µM	6.02 µM	5.49 µM	35.9 µM	6.55	
CC(C)[C@@H](C)/C=C/[C@@H](C)[C@H]1CC[C@@H]2[C@]1(C)CC[C@H]1[C@]23C=C[C@]2(C[C@@H](OC(=O)NCCNC(=O)CN4C(=O)S/C(=C\c5ccc(Br)cc5)C4=O)CC[C@]12C)OO3	7.9 µM	7.34 µM	4.39 µM	45.3 µM	10.3	
CC(C)[C@@H](C)/C=C/[C@@H](C)[C@H]1CC[C@@H]2[C@]1(C)CC[C@H]1[C@]23C=C[C@]2(C[C@@H](O)CC[C@]12C)OO3 [ERGOSTEROL PEROXIDE]	15 µM	18.1 µM	19.4 µM			viability at 6 µM [6]: 90.1%; Activity [7]: 8.97%; Activity [8]: 0.45%; Activity [9]: 0.47%; Activity [10]: 11.3%; Activity [11]: 61.61%; Activity [12]: 18.74%; Activity [13]: 19.66%
COc1ccc(/C=C2\SC(=O)N(CC(=O)NCCNC(=O)O[C@H]3CC[C@]4(C)[C@H]5CC[C@]6(C)[C@@H]([C@H](C)/C=C/[C@H](C)C(C)C)CC[C@H]6[C@@]56C=C[C@]4(C3)OO6)C2=O)cc1OC	8.54 µM	6.18 µM	5.33 µM	20.8 µM	3.89	
Cc1ccc(/C=C2\SC(=O)N(CC(=O)NCCNC(=O)O[C@H]3CC[C@]4(C)[C@H]5CC[C@]6(C)[C@@H]([C@H](C)/C=C/[C@H](C)C(C)C)CC[C@H]6[C@@]56C=C[C@]4(C3)OO6)C2=O)cc1	7.18 µM	6.82 µM	4.71 µM	24.1 µM	5.11	
CC(C)/C=C1/SC(=O)N(CC(=O)O[C@H]2CC[C@]3(C)[C@H]4CC[C@]5(C)[C@@H]([C@H](C)/C=C/[C@H](C)C(C)C)CC[C@H]5[C@@]45C=C[C@]3(C2)OO5)C1=O	7.65 µM	14.6 µM	20.4 µM			
CC(C)[C@@H](C)/C=C/[C@@H](C)[C@H]1CC[C@@H]2[C@]1(C)CC[C@H]1[C@]23C=C[C@]2(C[C@@H](OC(=O)NCCNC(=O)CN4C(=O)S/C(=C\c5ccc(F)cc5)C4=O)CC[C@]12C)OO3	9.17 µM	13.3 µM	11.6 µM			
Cc1ccc(/C=C2/SC(=O)N(CC(=O)O[C@H]3CC[C@]4(C)[C@H]5CC[C@]6(C)[C@@H]([C@H](C)/C=C/[C@H](C)C(C)C)CC[C@H]6[C@@]56C=C[C@]4(C3)OO6)C2=O)cc1	14.2 µM	14.6 µM	11.5 µM			
CC(C)/C=C1\SC(=O)N(CC(=O)N2CCN(C(=O)O[C@H]3CC[C@]4(C)[C@H]5CC[C@]6(C)[C@@H]([C@H](C)/C=C/[C@H](C)C(C)C)CC[C@H]6[C@@]56C=C[C@]4(C3)OO6)CC2)C1=O	7.69 µM	10.5 µM	8.89 µM			
CC(C)[C@@H](C)/C=C/[C@@H](C)[C@H]1CC[C@@H]2[C@]1(C)CC[C@H]1[C@]23C=C[C@]2(C[C@@H](OC(=O)CN4C(=O)S/C(=C/c5ccccc5F)C4=O)CC[C@]12C)OO3	11.4 µM	12.5 µM	14.4 µM			
CC(C)[C@@H](C)/C=C/[C@@H](C)[C@H]1CC[C@@H]2[C@]1(C)CC[C@H]1[C@]23C=C[C@]2(C[C@@H](OC(=O)CN4C(=O)S/C(=C/c5ccccc5)C4=O)CC[C@]12C)OO3	13.7 µM	17.6 µM	12.5 µM			
CC(C)[C@@H](C)/C=C/[C@@H](C)[C@H]1CC[C@@H]2[C@]1(C)CC[C@H]1[C@]23C=C[C@]2(C[C@@H](OC(=O)CN4C(=O)CSC4=O)CC[C@]12C)OO3	7.52 µM	17.7 µM	10.4 µM			
COc1ccc(/C=C2\SC(=O)N(CC(=O)NCCNC(=O)O[C@H]3CC[C@]4(C)[C@H]5CC[C@]6(C)[C@@H]([C@H](C)/C=C/[C@H](C)C(C)C)CC[C@H]6[C@@]56C=C[C@]4(C3)OO6)C2=O)c(OC)c1OC	5.08 µM	5.77 µM	4.26 µM	30.1 µM	7.07	
CC(C)[C@@H](C)/C=C/[C@@H](C)[C@H]1CC[C@@H]2[C@]1(C)CC[C@H]1[C@]23C=C[C@]2(C[C@@H](OC(=O)NCCNC(=O)CN4C(=O)S/C(=C\c5ccc(C(C)(C)C)cc5)C4=O)CC[C@]12C)OO3	6.68 µM	9.86 µM	10.7 µM			
CC(C)[C@@H](C)/C=C/[C@@H](C)[C@H]1CC[C@@H]2[C@]1(C)CC[C@H]1[C@]23C=C[C@]2(C[C@@H](OC(=O)NCCNC(=O)CN4C(=O)S/C(=C\c5ccccc5)C4=O)CC[C@]12C)OO3	11.4 µM	7.95 µM	6.8 µM	41.6 µM	6.12	
CC(C)[C@@H](C)/C=C/[C@@H](C)[C@H]1CC[C@@H]2[C@]1(C)CC[C@H]1[C@]23C=C[C@]2(C[C@@H](OC(=O)CN4C(=O)S/C(=C/c5cccs5)C4=O)CC[C@]12C)OO3	7.4 µM	17.3 µM	16.6 µM			
CC(C)[C@@H](C)/C=C/[C@@H](C)[C@H]1CC[C@@H]2[C@]1(C)CC[C@H]1[C@]23C=C[C@]2(C[C@@H](OC(=O)N4CCN(C(=O)CN5C(=O)S/C(=C\c6ccccc6F)C5=O)CC4)CC[C@]12C)OO3	6.95 µM	10.8 µM	15.8 µM			
O=c1[nH]cc(F)c(=O)[nH]1 [FLUOROURACIL]	4.27 µM	10.7 µM				inhibition in vivo at 30 mg/kg [14]: 86.1%; TGI [15]: Active; Activity [16]: Non-toxic
CC(C)[C@@H](C)/C=C/[C@@H](C)[C@H]1CC[C@@H]2[C@]1(C)CC[C@H]1[C@]23C=C[C@]2(C[C@@H](OC(=O)N4CCN(C(=O)CN5C(=O)S/C(=C\C6CC6)C5=O)CC4)CC[C@]12C)OO3	6.06 µM	8.97 µM	7.17 µM			
CC(C)[C@@H](C)/C=C/[C@@H](C)[C@H]1CC[C@@H]2[C@]1(C)CC[C@H]1[C@]23C=C[C@]2(C[C@@H](OC(=O)NCCNC(=O)CN4C(=O)S/C(=C\c5ccc(Cl)cc5)C4=O)CC[C@]12C)OO3	8.91 µM	8.92 µM	5.9 µM	28.9 µM	4.9	
